Measured values from US7208482B2, “9-aminoacyl tetracycline compounds and methods of use thereof” (Paratek Pharmaceuticals, Inc., priority 2001, dated 2007).
In brackets after ≈: the same amount, converted by molar mass.

Key:
Assay in all cases: MIC, broth microdilution growth inhibition
Type in all cases: cell-based
Conditions in all cases: Mueller-Hinton broth, 5×10^5 CFU/ml, 37° C., 18 h
[1] = tested on: S. aureus RN4250
Procedure: (§1) Growth-inhibitory activity was determined on liquid medium by the antibiotic dilution technique using 96-well microtiter system plates containing two-fold dilutions of antibiotic-agent in 0.2 ml. of Mueller-Hinton broth. Plates were inoculated with each test organism to yield a final inoculum of 5×10^5 CFU/ml and were incubated aerobically at 37° C. for 18 h. The MIC was defined as the lowest concentration of antibacterial agent that inhibited development of visible growth in the microdilution wells.

[2] = tested on: M. catarrhalis ATCC 23246
Procedure: as §1

[3] = tested on: E. hirae ATCC 9790
Procedure: as §1

[4] = tested on: S. aureus RN450
Procedure: as §1

[5] = tested on: H. influenzae ATCC 49247
Procedure: as §1

[6] = tested on: E. coli 1850E
Procedure: as §1

[7] = tested on: S. aureus ATCC 29213
Procedure: as §1

[8] = tested on: S. pneumoniae ATCC 49619
Procedure: as §1

[9] = tested on: S. aureus ATCC 13709
Procedure: as §1

[10] = tested on: S. pneumoniae 157E
Procedure: as §1

[11] = tested on: E. coli ATCC 25933
Procedure: as §1

MIC [1] [µg/mL] | MIC [2] [µg/mL] | MIC [3] [µg/mL] | MIC [4] [µg/mL] | MIC [5] [µg/mL] | MIC [6] [µg/mL] | MIC [8] [µg/mL] | MIC [9] [µg/mL] | MIC [10] [µg/mL] | MIC [11] [µg/mL] | Compound | MIC [7] [µg/mL]
2 (≈ 3.57 µM) | 1 (≈ 1.79 µM) | 0.25 (≈ 0.447 µM) | 0.25 (≈ 0.447 µM) | 32 (≈ 57.2 µM) | 64 (≈ 114 µM) | 0.5 (≈ 0.894 µM) | 0.5 (≈ 0.894 µM) | 1 (≈ 1.79 µM) |  | CCOC(=O)C(C)Nc1ccc2c(c1O)C(=O)C1=C(O)[C@]3(O)C(=O)C(C(N)=O)=C(O)[C@@H](N(C)C)[C@@H]3[C@@H](O)[C@@H]1[C@H]2C (stereo partly drawn) [Example 2, [4S-(4a,5,5a,6,12a)]-4-(Dimethylamino)-9-[1-(ethoxycarbonyl)ethyl]amino-1,4,4a,5,5a,6,11,12a-octahydro-3,5,10,12,12a-pentahydroxy-6-methyl-1,11-dioxo-2-naphtacenecarboxamide] | 
2 (≈ 3.67 µM) | 2 (≈ 3.67 µM) | 1 (≈ 1.83 µM) | 0.5 (≈ 0.917 µM) | 8 (≈ 14.7 µM) | 32 (≈ 58.7 µM) | 0.5 (≈ 0.917 µM) | 1 (≈ 1.83 µM) |  |  | CCOC(=O)CNc1ccc2c(c1O)C(=O)C1=C(O)[C@]3(O)C(=O)C(C(N)=O)=C(O)[C@@H](N(C)C)[C@@H]3[C@@H](O)[C@@H]1[C@H]2C [Example 3, [4S-(4a,5,5a,6,12a)]-4-(Dimethylamino)-9-[(ethoxycarbonyl)methyl]amino-1,4,4a,5,5a,6,11,12a-octahydro-3,5,10,12,12a-pentahydroxy-6-methyl-1,11-dioxo-2-naphtacenecarboxamide] | 
 |  |  |  | 2 (≈ 3.67 µM) |  | 0.06 (≈ 0.11 µM) |  |  | 2 (≈ 3.67 µM) | C[C@H]1c2ccc(NCC(=O)N(C)C)c(O)c2C(=O)C2=C(O)[C@]3(O)C(=O)C(C(N)=O)=C(O)[C@@H](N(C)C)[C@@H]3[C@@H](O)[C@@H]21 [Example 4, [4S-(4a,5,5a,6,12a)]-4-(Dimethylamino)-9-[(N,N-dimethylaminocarbonyl)methyl]amino-1,4,4a,5,5a,6,11,12a-octahydro-3,5,10,12,12a-pentahydroxy-6-methyl-1,11-dioxo-2-naphtacenecarboxamide] | 0.5 (≈ 0.918 µM)

Compound | MIC [1] [µg/mL] | MIC [2] [µg/mL] | MIC [3] [µg/mL] | MIC [4] [µg/mL] | MIC [5] [µg/mL] | MIC [6] [µg/mL] | MIC [8] [µg/mL] | MIC [9] [µg/mL] | MIC [10] [µg/mL] | MIC [11] [µg/mL] | MIC [7] [µg/mL]
CCOC(=O)CNc1cc(N(C)C)c2c(c1O)C(=O)C1=C(O)[C@]3(O)C(=O)C(C(N)=O)=C(O)[C@@H](N(C)C)[C@@H]3C[C@@H]1C2 [Example 1, [4S-(4a,5a,12a)]-4,7-Bis(dimethylamino)-9-[(ethoxycarbonyl)methyl]amino-1,4,4a,5,5a,6,11,12a-octahydro-3,10,12,12a-tetrahydroxy-1,11-dioxo-2-naphtacenecarboxamide] | 16 (≈ 28.6 µM) | 4 (≈ 7.16 µM) | 8 (≈ 14.3 µM) | 16 (≈ 28.6 µM) | 32 (≈ 57.3 µM) | 32 (≈ 57.3 µM) | 32 (≈ 57.3 µM) |  |  |  | 16 (≈ 28.6 µM)
